Data: ChEMBL document CHEMBL5463727, “Data for DCP probe SGK3-PROTAC1” (2023)

Experiments:
[1] = molecular target: Homeodomain-interacting protein kinase 2 (Homo sapiens) (UniProt Q9H2X6); test: % Activity remaining of HIPK2 in the Dundee kinase panel at 1.0 µM; details: Compound concentration 1.0 uM
[2] = molecular target: Mitogen-activated protein kinase 12 (Homo sapiens) (UniProt P53778); test: % Activity remaining of p38 gamma MAPK in the Dundee kinase panel at 1.0 µM; details: Compound concentration 1.0 uM
[3] = molecular target: MAP kinase-interacting serine/threonine-protein kinase 2 (Homo sapiens) (UniProt Q9HBH9); test: % Activity remaining of MNK2 in the Dundee kinase panel at 1.0 µM; details: Compound concentration 1.0 uM
[4] = molecular target: Protein kinase C gamma type (Homo sapiens) (UniProt P05129); test: % Activity remaining of PKC gamma in the Dundee kinase panel at 1.0 µM; details: Compound concentration 1.0 uM
[5] = molecular target: High affinity nerve growth factor receptor (Homo sapiens) (UniProt P04629); test: % Activity remaining of TrkA in the Dundee kinase panel at 1.0 µM; details: Compound concentration 1.0 uM
[6] = molecular target: Serine/threonine-protein kinase Sgk1 (Homo sapiens, UniProt O00141); test: (§1) % Activity remaining of SGK1 in the Dundee kinase panel at 1.0 µM
[7] = molecular target: T1, Serine/threonine-protein kinase Sgk1 (Homo sapiens) (UniProt O00141); test: as §1; details: Compound concentration 1.0 uM
T1 sequence (whole entry): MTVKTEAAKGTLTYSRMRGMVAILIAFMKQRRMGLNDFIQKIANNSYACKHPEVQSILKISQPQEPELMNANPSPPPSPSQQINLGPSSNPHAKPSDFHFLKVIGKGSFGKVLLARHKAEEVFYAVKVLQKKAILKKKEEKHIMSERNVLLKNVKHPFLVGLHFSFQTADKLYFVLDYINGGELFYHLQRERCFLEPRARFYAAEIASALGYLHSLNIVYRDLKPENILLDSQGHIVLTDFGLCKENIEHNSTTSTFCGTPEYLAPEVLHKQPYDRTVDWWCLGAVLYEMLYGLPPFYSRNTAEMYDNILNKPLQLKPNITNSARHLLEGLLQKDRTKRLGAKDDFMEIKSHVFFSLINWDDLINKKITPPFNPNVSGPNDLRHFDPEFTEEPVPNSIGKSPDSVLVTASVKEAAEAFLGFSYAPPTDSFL

[8] = molecular target: Ephrin type-A receptor 2 (Homo sapiens) (UniProt P29317); test: % Activity remaining of EPH-A2 in the Dundee kinase panel at 1.0 µM; details: Compound concentration 1.0 uM
[9] = molecular target: MAP/microtubule affinity-regulating kinase 4 (Homo sapiens) (UniProt Q96L34); test: % Activity remaining of MARK4 in the Dundee kinase panel at 1.0 µM; details: Compound concentration 1.0 uM
[10] = molecular target: Insulin-like growth factor 1 receptor (Homo sapiens) (UniProt P08069); test: % Activity remaining of IGF-1R in the Dundee kinase panel at 1.0 µM; details: Compound concentration 1.0 uM
[11] = molecular target: Casein kinase I isoform delta (Homo sapiens) (UniProt P48730); test: % Activity remaining of CK1 delta in the Dundee kinase panel at 1.0 µM; details: Compound concentration 1.0 uM
[12] = molecular target: Homeodomain-interacting protein kinase 3 (Homo sapiens) (UniProt Q9H422); test: % Activity remaining of HIPK3 in the Dundee kinase panel at 1.0 µM; details: Compound concentration 1.0 uM
[13] = molecular target: Serine/threonine-protein kinase WNK1 (Homo sapiens) (UniProt Q9H4A3); test: % Activity remaining of WNK1 in the Dundee kinase panel at 1.0 µM; details: Compound concentration 1.0 uM
Chain of Serine/threonine-protein kinase WNK1 (Homo sapiens) (Q9H4A3 whole entry, looked up): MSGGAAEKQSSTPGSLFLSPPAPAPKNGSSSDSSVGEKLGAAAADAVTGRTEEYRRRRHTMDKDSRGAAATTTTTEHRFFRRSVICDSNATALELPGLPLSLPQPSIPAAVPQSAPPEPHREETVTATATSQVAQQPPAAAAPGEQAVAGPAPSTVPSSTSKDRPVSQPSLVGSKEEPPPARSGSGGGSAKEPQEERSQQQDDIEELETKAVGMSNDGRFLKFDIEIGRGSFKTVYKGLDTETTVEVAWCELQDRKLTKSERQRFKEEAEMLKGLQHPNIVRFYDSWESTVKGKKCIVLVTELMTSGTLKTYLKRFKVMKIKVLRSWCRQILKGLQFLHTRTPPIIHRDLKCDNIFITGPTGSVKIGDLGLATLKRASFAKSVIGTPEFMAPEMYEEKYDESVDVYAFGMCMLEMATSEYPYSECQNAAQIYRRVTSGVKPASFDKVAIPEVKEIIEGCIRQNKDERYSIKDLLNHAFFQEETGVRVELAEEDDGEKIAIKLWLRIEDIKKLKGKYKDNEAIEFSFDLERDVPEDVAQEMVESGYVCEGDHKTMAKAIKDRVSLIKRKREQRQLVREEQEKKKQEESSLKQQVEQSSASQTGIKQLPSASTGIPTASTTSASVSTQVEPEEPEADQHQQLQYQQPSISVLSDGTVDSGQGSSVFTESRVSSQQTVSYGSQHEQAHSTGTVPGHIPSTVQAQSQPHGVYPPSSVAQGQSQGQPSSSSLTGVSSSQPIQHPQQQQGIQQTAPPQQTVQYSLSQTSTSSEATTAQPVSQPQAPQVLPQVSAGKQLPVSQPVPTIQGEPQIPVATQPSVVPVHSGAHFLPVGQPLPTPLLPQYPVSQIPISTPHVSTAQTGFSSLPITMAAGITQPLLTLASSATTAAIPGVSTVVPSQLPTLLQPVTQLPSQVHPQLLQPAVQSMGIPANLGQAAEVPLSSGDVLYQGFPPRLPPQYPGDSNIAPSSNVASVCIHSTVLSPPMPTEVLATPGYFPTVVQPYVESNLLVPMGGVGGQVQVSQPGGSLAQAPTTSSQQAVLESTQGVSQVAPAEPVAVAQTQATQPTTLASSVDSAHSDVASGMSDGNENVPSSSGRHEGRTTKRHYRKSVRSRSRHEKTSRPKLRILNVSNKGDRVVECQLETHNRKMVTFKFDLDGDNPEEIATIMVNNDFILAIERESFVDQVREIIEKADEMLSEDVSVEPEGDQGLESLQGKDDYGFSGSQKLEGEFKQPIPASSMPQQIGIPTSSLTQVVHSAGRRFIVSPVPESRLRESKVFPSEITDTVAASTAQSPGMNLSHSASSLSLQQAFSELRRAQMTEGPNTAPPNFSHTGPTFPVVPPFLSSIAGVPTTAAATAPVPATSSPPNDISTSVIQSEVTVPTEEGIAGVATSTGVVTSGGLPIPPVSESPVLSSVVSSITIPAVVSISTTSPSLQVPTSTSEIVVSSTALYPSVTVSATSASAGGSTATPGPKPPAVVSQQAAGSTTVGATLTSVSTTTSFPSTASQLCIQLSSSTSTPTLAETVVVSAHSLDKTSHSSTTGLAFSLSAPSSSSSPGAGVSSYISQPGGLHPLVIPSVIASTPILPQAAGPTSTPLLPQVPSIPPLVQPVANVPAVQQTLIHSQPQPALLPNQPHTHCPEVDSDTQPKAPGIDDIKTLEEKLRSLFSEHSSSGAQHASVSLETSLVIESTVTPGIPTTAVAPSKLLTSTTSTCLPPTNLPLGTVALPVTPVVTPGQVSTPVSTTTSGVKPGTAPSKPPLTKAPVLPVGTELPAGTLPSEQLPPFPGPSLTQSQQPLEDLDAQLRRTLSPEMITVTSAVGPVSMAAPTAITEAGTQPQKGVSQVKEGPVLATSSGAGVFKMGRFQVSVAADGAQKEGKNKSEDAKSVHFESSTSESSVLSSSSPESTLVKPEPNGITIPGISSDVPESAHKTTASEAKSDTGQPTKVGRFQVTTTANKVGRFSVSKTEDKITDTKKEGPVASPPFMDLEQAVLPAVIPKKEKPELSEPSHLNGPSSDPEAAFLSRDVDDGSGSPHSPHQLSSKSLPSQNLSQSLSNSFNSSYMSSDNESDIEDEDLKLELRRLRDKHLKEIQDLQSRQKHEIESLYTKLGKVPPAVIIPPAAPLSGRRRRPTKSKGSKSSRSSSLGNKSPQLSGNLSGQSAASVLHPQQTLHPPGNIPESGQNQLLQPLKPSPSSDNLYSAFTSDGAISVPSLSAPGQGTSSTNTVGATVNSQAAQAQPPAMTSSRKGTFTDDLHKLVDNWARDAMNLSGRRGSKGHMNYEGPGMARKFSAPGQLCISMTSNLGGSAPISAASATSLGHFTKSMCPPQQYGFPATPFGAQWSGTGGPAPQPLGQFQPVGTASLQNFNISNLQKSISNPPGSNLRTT

[14] = molecular target: Serine/threonine-protein kinase PINK1, mitochondrial (Homo sapiens) (UniProt Q9BXM7); test: % Activity remaining of PINK in the Dundee kinase panel at 1.0 µM; details: Compound concentration 1.0 uM
[15] = molecular target: Homeodomain-interacting protein kinase 1 (Homo sapiens) (UniProt Q86Z02); test: % Activity remaining of HIPK1 in the Dundee kinase panel at 1.0 µM; details: Compound concentration 1.0 uM
Chain of Homeodomain-interacting protein kinase 1 (Homo sapiens) (Q86Z02 whole entry, looked up): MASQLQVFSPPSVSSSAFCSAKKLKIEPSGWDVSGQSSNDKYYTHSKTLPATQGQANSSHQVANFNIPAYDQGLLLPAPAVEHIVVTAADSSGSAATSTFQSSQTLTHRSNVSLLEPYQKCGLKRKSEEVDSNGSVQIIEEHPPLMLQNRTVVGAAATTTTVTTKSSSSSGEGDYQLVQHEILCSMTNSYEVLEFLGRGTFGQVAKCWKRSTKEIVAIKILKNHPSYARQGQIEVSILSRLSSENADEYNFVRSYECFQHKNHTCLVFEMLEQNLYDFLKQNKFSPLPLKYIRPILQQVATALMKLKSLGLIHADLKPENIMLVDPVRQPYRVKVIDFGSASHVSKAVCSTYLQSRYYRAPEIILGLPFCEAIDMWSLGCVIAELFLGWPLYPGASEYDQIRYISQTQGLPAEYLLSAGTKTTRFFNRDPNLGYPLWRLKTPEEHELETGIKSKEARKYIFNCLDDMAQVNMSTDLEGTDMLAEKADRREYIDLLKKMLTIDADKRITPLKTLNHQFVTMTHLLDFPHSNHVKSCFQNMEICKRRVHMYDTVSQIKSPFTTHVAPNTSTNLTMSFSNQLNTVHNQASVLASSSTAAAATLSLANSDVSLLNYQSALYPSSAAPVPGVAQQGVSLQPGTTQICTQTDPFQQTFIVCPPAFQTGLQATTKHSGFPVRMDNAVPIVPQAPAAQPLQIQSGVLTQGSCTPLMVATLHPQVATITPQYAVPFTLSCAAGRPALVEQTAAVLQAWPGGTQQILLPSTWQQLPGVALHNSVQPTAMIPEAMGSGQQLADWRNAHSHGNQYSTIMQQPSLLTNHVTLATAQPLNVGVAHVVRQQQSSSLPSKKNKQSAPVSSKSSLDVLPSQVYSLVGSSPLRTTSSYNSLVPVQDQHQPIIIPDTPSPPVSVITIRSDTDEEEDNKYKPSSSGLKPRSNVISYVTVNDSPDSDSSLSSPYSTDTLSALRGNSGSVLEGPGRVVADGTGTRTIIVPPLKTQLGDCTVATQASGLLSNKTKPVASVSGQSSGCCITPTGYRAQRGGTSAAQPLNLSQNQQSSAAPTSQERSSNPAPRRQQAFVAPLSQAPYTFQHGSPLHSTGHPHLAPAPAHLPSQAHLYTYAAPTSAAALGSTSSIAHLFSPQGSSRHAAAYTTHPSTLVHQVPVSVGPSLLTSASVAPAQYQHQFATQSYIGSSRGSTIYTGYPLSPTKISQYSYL

[16] = molecular target: Serine/threonine-protein kinase PAK 2 (Homo sapiens) (UniProt Q13177); test: % Activity remaining of PAK2 in the Dundee kinase panel at 1.0 µM; details: Compound concentration 1.0 uM
[17] = molecular target: Tyrosine-protein kinase SYK (Homo sapiens) (UniProt P43405); test: % Activity remaining of SYK in the Dundee kinase panel at 1.0 µM; details: Compound concentration 1.0 uM
[18] = molecular target: Mitogen-activated protein kinase 11 (Homo sapiens) (UniProt Q15759); test: % Activity remaining of p38 beta MAPK in the Dundee kinase panel at 1.0 µM; details: Compound concentration 1.0 uM
[19] = molecular target: Serine/threonine-protein kinase ULK2 (Homo sapiens) (UniProt Q8IYT8); test: % Activity remaining of ULK2 in the Dundee kinase panel at 1.0 µM; details: Compound concentration 1.0 uM
Chain of Serine/threonine-protein kinase ULK2 (Homo sapiens) (Q8IYT8 whole entry): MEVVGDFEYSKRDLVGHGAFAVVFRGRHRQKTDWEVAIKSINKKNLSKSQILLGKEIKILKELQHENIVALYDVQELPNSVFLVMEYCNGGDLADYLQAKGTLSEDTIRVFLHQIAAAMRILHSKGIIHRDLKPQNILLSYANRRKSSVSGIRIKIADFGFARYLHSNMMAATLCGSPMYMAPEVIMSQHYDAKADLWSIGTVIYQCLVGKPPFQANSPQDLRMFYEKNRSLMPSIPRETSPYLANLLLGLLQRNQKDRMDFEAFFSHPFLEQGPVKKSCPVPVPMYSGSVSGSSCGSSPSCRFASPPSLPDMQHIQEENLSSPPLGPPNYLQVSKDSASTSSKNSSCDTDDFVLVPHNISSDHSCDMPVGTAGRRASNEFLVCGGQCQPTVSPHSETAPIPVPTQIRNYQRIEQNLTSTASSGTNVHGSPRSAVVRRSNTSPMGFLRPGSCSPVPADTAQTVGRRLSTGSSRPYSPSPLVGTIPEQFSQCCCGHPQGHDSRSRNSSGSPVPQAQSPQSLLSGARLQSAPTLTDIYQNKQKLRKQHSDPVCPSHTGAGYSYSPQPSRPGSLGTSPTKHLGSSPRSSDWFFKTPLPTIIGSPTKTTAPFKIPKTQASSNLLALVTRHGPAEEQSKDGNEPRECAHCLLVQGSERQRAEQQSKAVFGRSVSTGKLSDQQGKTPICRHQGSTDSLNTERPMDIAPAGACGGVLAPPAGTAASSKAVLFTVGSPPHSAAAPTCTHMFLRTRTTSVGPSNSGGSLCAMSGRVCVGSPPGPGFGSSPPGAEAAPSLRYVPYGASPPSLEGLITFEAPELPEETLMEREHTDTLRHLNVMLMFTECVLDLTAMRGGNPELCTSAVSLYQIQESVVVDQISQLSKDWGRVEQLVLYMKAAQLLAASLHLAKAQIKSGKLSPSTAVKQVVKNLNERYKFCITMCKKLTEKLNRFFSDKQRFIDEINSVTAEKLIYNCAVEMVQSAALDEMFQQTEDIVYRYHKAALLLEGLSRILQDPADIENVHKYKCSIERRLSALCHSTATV

[20] = molecular target: Serine/threonine-protein kinase MARK1 (Homo sapiens) (UniProt Q9P0L2); test: % Activity remaining of MARK1 in the Dundee kinase panel at 1.0 µM; details: Compound concentration 1.0 uM
[21] = molecular target: Mitogen-activated protein kinase kinase kinase kinase 2 (Homo sapiens) (UniProt Q12851); test: % Activity remaining of GCK in the Dundee kinase panel at 1.0 µM; details: Compound concentration 1.0 uM
[22] = molecular target: Serine/threonine-protein kinase tousled-like 1 (Homo sapiens) (UniProt Q9UKI8); test: % Activity remaining of TLK1 in the Dundee kinase panel at 1.0 µM; details: Compound concentration 1.0 uM
[23] = molecular target: Tyrosine-protein kinase ABL1 (Homo sapiens) (UniProt P00519); test: % Activity remaining of ABL in the Dundee kinase panel at 1.0 µM; details: Compound concentration 1.0 uM
[24] = molecular target: 5'-AMP-activated protein kinase catalytic subunit alpha-1 (Homo sapiens) (UniProt Q13131); test: % Activity remaining of AMPK (hum) in the Dundee kinase panel at 1.0 µM; details: Compound concentration 1.0 uM
[25] = molecular target: Dual specificity mitogen-activated protein kinase kinase 2 (Homo sapiens) (UniProt P36507); test: % Activity remaining of MKK2 in the Dundee kinase panel at 1.0 µM; details: Compound concentration 1.0 uM
[26] = molecular target: Discoidin domain-containing receptor 2 (Homo sapiens) (UniProt Q16832); test: % Activity remaining of DDR2 in the Dundee kinase panel at 1.0 µM; details: Compound concentration 1.0 uM
[27] = molecular target: Tau-tubulin kinase 2 (Homo sapiens) (UniProt Q6IQ55); test: % Activity remaining of TTBK2 in the Dundee kinase panel at 1.0 µM; details: Compound concentration 1.0 uM
[28] = molecular target: Ephrin type-B receptor 3 (Homo sapiens) (UniProt P54753); test: % Activity remaining of EPH-B3 in the Dundee kinase panel at 1.0 µM; details: Compound concentration 1.0 uM
[29] = molecular target: Serine/threonine-protein kinase Chk1 (Homo sapiens) (UniProt O14757); test: % Activity remaining of CHK1 in the Dundee kinase panel at 1.0 µM; details: Compound concentration 1.0 uM
[30] = molecular target: MAP kinase-activated protein kinase 3 (Homo sapiens) (UniProt Q16644); test: % Activity remaining of MAPKAP-K3 in the Dundee kinase panel at 1.0 µM; details: Compound concentration 1.0 uM
Chain of MAP kinase-activated protein kinase 3 (Homo sapiens) (Q16644 whole entry, looked up): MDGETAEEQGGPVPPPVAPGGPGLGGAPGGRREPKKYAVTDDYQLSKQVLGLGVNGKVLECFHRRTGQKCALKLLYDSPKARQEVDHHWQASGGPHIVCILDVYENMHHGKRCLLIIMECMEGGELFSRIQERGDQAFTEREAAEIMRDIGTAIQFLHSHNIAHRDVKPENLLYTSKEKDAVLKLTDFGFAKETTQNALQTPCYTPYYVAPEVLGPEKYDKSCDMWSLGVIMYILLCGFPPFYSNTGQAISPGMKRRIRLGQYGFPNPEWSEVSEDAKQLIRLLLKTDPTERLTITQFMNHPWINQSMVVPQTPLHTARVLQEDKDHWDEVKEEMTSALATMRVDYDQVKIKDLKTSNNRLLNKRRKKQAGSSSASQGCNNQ

[31] = molecular target: Fibroblast growth factor receptor 1 (Homo sapiens) (UniProt P11362); test: % Activity remaining of FGF-R1 in the Dundee kinase panel at 1.0 µM; details: Compound concentration 1.0 uM
[32] = molecular target: Eukaryotic translation initiation factor 2-alpha kinase 3 (Homo sapiens) (UniProt Q9NZJ5); test: % Activity remaining of EIF2AK3 in the Dundee kinase panel at 1.0 µM; details: Compound concentration 1.0 uM
[33] = molecular target: Platelet-derived growth factor receptor alpha (Homo sapiens) (UniProt P16234); test: % Activity remaining of PDGFRA in the Dundee kinase panel at 1.0 µM; details: Compound concentration 1.0 uM
[34] = molecular target: Ephrin type-A receptor 4 (Homo sapiens) (UniProt P54764); test: % Activity remaining of EPH-A4 in the Dundee kinase panel at 1.0 µM; details: Compound concentration 1.0 uM

% Activity remaining [1] [%] | % Activity remaining [2] [%] | % Activity remaining [3] [%] | % Activity remaining [4] [%] | % Activity remaining [5] [%] | IC50 [6] [µM] | % Activity remaining [7] [%] | % Activity remaining [8] [%] | % Activity remaining [9] [%] | % Activity remaining [10] [%] | % Activity remaining [11] [%] | % Activity remaining [12] [%] | % Activity remaining [13] [%] | % Activity remaining [14] [%] | % Activity remaining [15] [%] | % Activity remaining [16] [%] | % Activity remaining [17] [%] | % Activity remaining [18] [%] | % Activity remaining [19] [%] | % Activity remaining [20] [%] | Structure (SMILES) | further results
109 | 107 | 122 | 103 | 112 | 0.22 | 34.5 | 94.2 | 105 | 82.4 | 95 | 111 | 93.8 | 108 | 135 | 116 | 116 | 107 | 103 | 99.4 | Cc1ccc(F)c(S(=O)(=O)Nc2ccc(-c3nc(OC[C@H]4CN(CCCCCCOCCOCCOCC(=O)N[C@H](C(=O)N5C[C@H](O)C[C@H]5C(=O)NCc5ccc(-c6scnc6C)cc5)C(C)(C)C)CCO4)c4cn[nH]c4n3)cc2)c1 | % Activity remaining [21]: 99%; % Activity remaining [22]: 102%; % Activity remaining [23]: 111%; % Activity remaining [24]: 105%; % Activity remaining [25]: 114%; % Activity remaining [26]: 114%; % Activity remaining [27]: 93.5%; % Activity remaining [28]: 91.6%; % Activity remaining [29]: 111%; % Activity remaining [30]: 79%; % Activity remaining [31]: 108%; % Activity remaining [32]: 106%; % Activity remaining [33]: 101%; % Activity remaining [34]: 106%
99.7 | 127 | 122 | 99.9 | 102 | 1.4 | 50.9 | 104 | 100 | 93.2 | 108 | 105 | 96.6 | 109 | 126 | 98.7 | 103 | 112 | 117 | 93 | Cc1ccc(F)c(S(=O)(=O)Nc2ccc(-c3nc(OC[C@H]4CN(CCCCCCOCCOCCOCC(=O)N[C@H](C(=O)N5C[C@@H](O)C[C@H]5C(=O)NCc5ccc(-c6scnc6C)cc5)C(C)(C)C)CCO4)c4cn[nH]c4n3)cc2)c1 | % Activity remaining [21]: 96.3%; % Activity remaining [22]: 109%; % Activity remaining [23]: 112%; % Activity remaining [24]: 108%; % Activity remaining [25]: 124%; % Activity remaining [26]: 134%; % Activity remaining [27]: 89.7%; % Activity remaining [28]: 104%; % Activity remaining [29]: 126%; % Activity remaining [30]: 77%; % Activity remaining [31]: 106%; % Activity remaining [32]: 111%; % Activity remaining [33]: 94.8%; % Activity remaining [34]: 89.4%
